Measurements published in patent US10239839B2, “Compounds and formulations suitable for radical scavenging” (Solenne BV, priority 2006, dated 2019).
Entries after “also recorded” stand apart in the source; their conditions may differ. Blank lines part the entries; values can stand above or below the molecule they belong to.

What was measured:
erythema = assay: Erythemal response to 3×MED full spectrum UV light after occluded patches; assay type: in vivo, human; conditions: 0.3% wt. in grape seed oil, 3×MED 24 hours after treatment, 25 subjects
Description: [c] 25 human subjects, for which the minimal erythemal dose (MED) of full spectrum UV light (Solar Light Company's 601-300 Multiport Simulator, emitting light of a Xenon-Shortarc Lamp) had been determined, were treated with 6 occluded patches (on the back) with a formulation of HG2-V2 (0.3% wt.) in grape seed oil. 24 hours after patch treatment, the regions of application were exposed to 3×MED of the same light source. […] This provides evidence that the formulation provided an anti-erythemic effect, since erythema scores for 3×MED should range between 1-3.

[1] = Photo-oxidation of adamantylideneadamantane, UV light source; conditions: compared with α-tocopherol
Description: [e] Two beakers were irradiated simultaneously with a UV light source (Philips HB172, fitted with 4 Philips Cleo 15 W luminescent tubes; UV-type 3). Beaker 1 contained a mixture of 301.0 mg of adamantylideneadamantane and 24.9 mg of α-tocopherol (Aldrich, >97%) in 100 mL of chlorobenzene. This solution was placed in a 250 mL beaker, which was wrapped with paper and Al-foil to prevent light going through the side of the beaker. The solution was stirred magnetically and irradiated 7 hours with a UV lamp (Philips HB172, fitted with 4 Philips Cleo 15 W luminescent tubes; UV-type 3), which was mounted horizontally directly above the beakers. The reaction mixture was concentrated in vacuo and the resulting solid material was analyzed by ^1H NMR spectroscopy as described above. […] The ratio of the integrals of unreacted adamantylideneadamantane (at 2.9 ppm) to adamantylideneadamantane peroxide was 90:10.
Beaker 2 contained a mixture of 301.2 mg of adamantylideneadamantane and 25.0 mg of HG2-V2 in 100 mL of chlorobenzene. This solution was placed in a 250 mL beaker, which was wrapped with paper and Al-foil to prevent light going through the side of the beaker. […] The reaction mixture was concentrated in vacuo and the resulting solid material was analyzed by ^1H NMR spectroscopy as described above. […]

[2] = Percutaneous absorption study; assay type: in vitro ADME; conditions: 0.3% (wt.) in grape seed oil
Description: [d] A percutaneous absorption study was conducted with 6 fresh viable skin samples from one donor, where 20 times recommended usage level (recommended usage level is 6-8 drops on the face) of a 0.3% (wt.) formulation of HG2-V2 in grape seed oil was used. Analysis by extraction of receptor fluid with toluene and analysis with HPLC-MS (using Buckyprep analytical column) was performed.

[3] = UV-Vis absorbance / optical density; assay type: physicochemical
Description: All of these oils show an absorbance (A) at λ=570 nm of A570 less than 0.05 when measuring the neat oil against water, using 1 cm cuvettes as is general practice. The above absorbance profiles were measured by placing the neat oil in the 1 cm path length spectrometer cuvette. […] Olive oil typically has a darker appearance (and is thus more optically dense) than the other oils, and this can be seen in the absorption profile.
In many instances, the concentration of fullerene, fullerene derivative, or fullerene-derived ketolactam desired due to considerations of optimal antioxidant efficacy is higher than can be conveniently measured by standard UV/vis spectroscopy. For concentrated solutions, dilution may be necessary to obtain a proper spectrum in the so-called visible area (λ=400-700 nm). If such concentrated solutions are measured without dilution, A570 may exceed a limit to obtain an accurate measurement, or may even exceed the maximum value that can be measured by the spectrometer. As an example, the spectrum of a concentrated solution of HG2-V2 in grapeseed oil (9.2 mg HG2-V2 dissolved in 3 mL), diluted×10 (v/v) with toluene, is shown in FIG. 8. Here, A570 is 0.24, meaning that without dilution it would give approximately A=2.4. Common UV-Vis spectrometers can usually measure up to A≈5, meaning that for this solution a large part of the spectrum (λ<510 nm) could not have been accurately measured without dilution.
400 mg HG2-V2 was added to 100 g of commercially available liquid grape seed oil and stirred with mechanical stirring for 4 hours at 25 deg. C. The HG2-V2 dissolved to give a clear, dark, amber colored solution of 0.4% (wt.) active in a simple solution. The optical density measured for this solution was over 2 AU/cm, and after 10/1 dilution with toluene was over 0.2.

[4] = Stability of solutions exposed to light and air; assay type: physicochemical; conditions: dissolved in grape seed oil, darker than parent oil, up to a year
From the text: For example, it is known in the art that a dilute solution of C60 in toluene exposed to light and air will undergo approximately 10% or more degradation and loss of the C60 due to epoxidation and subsequent breakdown of the fullerene cage resulting from singlet oxygen generated via photoexcitation of the C60. This can be seen even visually since the decomposed C60 forms a blackish product which settles out of solution.

[5] = natural sunlight, chlorobenzene
Description: [f] Two beakers were irradiated simultaneously by natural sunlight. Beaker 2 contained a solution of 300.5 mg of adad and 17.9 mg of PCBM in 100 mL of chlorobenzene. This solution was placed in a 250 mL beaker, wrapped with paper and Al-foil to prevent light going through the side of the beaker. […] The resulting solution was put in a brown-glass bottle for transport. The solvent was removed in vacuo and the resulting solid material was analyzed by ^1H NMR spectroscopy as described above.
This solution was placed in a 250 mL beaker, wrapped with paper and Al-foil to prevent light going through the side of the beaker. […] The resulting solution was placed in a brown-glass bottle for transport. Approximately 10 mL of the reaction mixture was filtered and put aside. The remaining amount was concentrated in vacuo and the resulting solid material was analyzed by ^1H NMR spectroscopy as described above.
This solution gave an absorbance of A=0.14 at 646 nm (against neat chlorobenzene).

[6] = Tagmatarchis et al.; Hauke et al.; cited from earlier work
[7] = Photo-oxidation of adamantylideneadamantane (ad=ad) to monitor ^1O2 formation, sodium lamp; conditions: bubbling air
From the text: Excited fullerene, triplet+O2→fullerene+singlet oxygen (^1O2) The ^1O2 thus generated can react with a fullerene, giving an oxidized fullerene, or with other molecules that can react with ^1O2. One such molecule is adamantylideneadamantane (ad=ad), which is known to react with ^1O2, giving a stable 1,2-dioxetane, adamantylideneadamantane peroxide, as the product (J. H. Wieringa et al., Tetrahedron Letters 1972, 2, 169). This reaction is depicted in FIG. 11. This oxidation of ad=ad can be used to monitor the formation of ^1O2 by fullerenes or fullerene derivatives.
In a first set of experiments, Phenyl-C61-Butyric-Acid-Methyl-Ester (PCBM,) and HG2-V1 were compared. […] After reaction overnight, the solvent was removed in vacuo and the residual material analyzed by ^1H NMR. […]
In a second set of experiments, the above reaction was done at a high concentration (20 mg/mL) of ad=ad, this time using CCl4 as the solvent. […] Thus, samples from the reaction can be directly analyzed by ^1H NMR, when diluted with, e.g., CDCl3. […]
Samples of 150-200 μL were taken from the reaction and diluted with ˜400 μL of CDCl3. […] Thus, the formation of adamantylideneadamantane peroxide was monitored over time, by following the appearance of the signal at 2.65 ppm. […]

percutaneous absorption ([2]; 20 times recommended usage level, receptor fluid 8 hr and 24 hr): less than 0.004%
A570 ([3]; 9.2 mg in 3 mL grapeseed oil, diluted ×10 (v/v) with toluene): 0.24
A570 without dilution ([3]; 9.2 mg in 3 mL grapeseed oil, extrapolated): ~2.4
optical density ([3]; 0.4% (wt.) in grape seed oil): over 2 AU/cm
optical density after 10/1 dilution with toluene ([3]; 0.4% (wt.) in grape seed oil): over 0.2
decomposition on exposure to light and air [4]: reduced amount of decomposition products
Molecule: 2a-Aza-1,2(2a)-homo-1,9-seco[5,6]fullerene-C60—Ih-1,9-dione,2a-[[4-docosyloxy)-3-methoxyphenyl]methyl] [HG2-V2]
average erythemic response on the erythema response scale (1 = first sign of erythema) (erythema): 0.77
net generation of ^1O2 under UV irradiation, equal weight percentage [1]: less for HG2-V2 than α-tocopherol
content in receptor fluid (HPLC-MS) ([2]; 8 hr and 24 hr collection points): no HG2-V2 at or above analytical detection limit

average optical absorption between 400 nm and 700 nm compared to PCBM [3]: about 10 times
Molecule: CN(C)c1ccc2nc3ccc(=[N+](C)C)cc-3sc2c1 [MB, methylene blue]
amount of ^1O2 compared to PCBM on an equal absorption and equimolar basis [5]: 25 times
net generation of ^1O2 compared to PCBM on an equimolar basis [5]: 250 times

Molecule: (C59N)2
^1O2 quantum yields (in words) [6]: reduced ^1O2 quantum yields

Molecule: C59NH
^1O2 quantum yields (in words) [6]: reduced ^1O2 quantum yields

Molecule: Phenyl-C61-Butyric-Acid-Methyl-Ester [PCBM]
production of adamantylideneadamantane peroxide over time (ratio of peak at 2.65 ppm and signal at 2.88 ppm of ad=ad) ([7]; CCl4, ad=ad 20 mg/mL, 150 W sodium lamp, equal molarity): much faster
amount of adamantylideneadamantane peroxide formed (^1H NMR signal at 2.65 ppm) ([7]; chlorobenzene, ad=ad 1.5 mg/mL, 400 W sodium lamp, 16.5-17 h): much larger than that formed when using HG2-V1; also recorded: substantial amount
